In patent publication US20150105252A1, “SUBSTITUTED PYRAZOLES AS HERBICIDES” (E I DU PONT DE NEMOURS AND COMPANY, priority 2013, published 2015):

Columns and labels:
crabgrass, large [1] = assay: Test A postemergence; assay type: in vivo, Digitaria sanguinalis
Summary of the method: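 Scoring was visual, on a scale where 100 means complete control and 0 means no effect, comparing treated with untreated plants around 10 days post-application. Compounds in surfactant-containing non-phytotoxic solvent were sprayed onto soil preemergence or onto one- to two-leaf seedlings (2–10 cm) postemergence.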

blackgrass = assay: Test C postemergence; assay type: in vivo, Alopecurus myosuroides
Source text: (§1) Seeds of plant species selected from blackgrass (Alopecurus myosuroides), ryegrass, Italian (Italian ryegrass, Lolium multiflorum), wheat (winter wheat, Triticum aestivum), galium (catchweed bedstraw, Galium aparine), corn (Zea mays), crabgrass, large (large crabgrass, Digitaria sanguinalis), foxtail, giant (giant foxtail, Setaria faberii), johnsongrass (Sorghum halepense), lambsquarters (Chenopodium album), morningglory (Ipomoea coccinea), nutsedge, yellow (yellow nutsedge, Cyperus esculentus), pigweed (redroot pigweed, Amaranthus retroflexus), ragweed (common ragweed, Ambrosia elation), soybean (Glycine max), barnyardgrass (Echinochloa crus-galli), oilseed rape (Brassica napus), waterhemp (common waterhemp, Amaranthus rudis), oat, wild (wild oat, Avena fatua), kochia (Kochia scoparia), Surinam grass (Brachiaria decumbens), foxtail, green (green foxtail, Setaria viridis), goosegrass (Eleusine indica), bromegrass, downy (downy bromegrass, Bromus tectorum), nightshade (eastern black nightshade, Solanum ptycanthum), cocklebur (common cocklebur, Xanthium strumarium), cupgrass, woolly (woolly cupgrass, Eriochloa villosa), bermudagrass (Cynodon dactylon), sunflower, (common oilseed sunflower, Helianthus annuus), Russian thistle (Salsola kali), and velvetleaf (Abutilon theophrasti) were planted into a blend of loam soil and sand and treated preemergence with test chemicals formulated in a non-phytotoxic solvent mixture which included a surfactant.
(§2) At the same time, plants selected from these crop and weed species and also chickweed (common chickweed, Stellaria media), canarygrass (littleseed canarygrass, Phalaris minor), and deadnettle (henbit deadnettle, Lamium amplexicaule), were planted in pots containing Redi-Earth® planting medium (Scotts Company, 14111 Scottslawn Road, Marysville, Ohio 43041) comprising spaghnum peat moss, vermiculite, wetting agent and starter nutrients and treated with postemergence applications of test chemicals formulated in the same manner. Plants ranged in height from 2 to 18 cm (1- to 4-leaf stage) for postemergence treatments. Treated plants and controls were maintained in a greenhouse for 13 to 15 days, after which time all species were compared to controls and visually evaluated. Plant response ratings, summarized in Table C, are based on a scale of 0 to 100 where 0 is no effect and 100 is complete control. A dash (-) response means no test result.

crabgrass, large [2] = assay: Test C postemergence; assay type: in vivo, Digitaria sanguinalis
Source text: as §1, §2

johnsongrass [3] = assay: Test C postemergence; assay type: in vivo, Sorghum halepense
Source text: as §1, §2

morningglory = assay: Test C postemergence; assay type: in vivo, Ipomoea coccinea
Source text: as §1, §2

velvetleaf [4] = assay: Test C postemergence; assay type: in vivo, Abutilon theophrasti; conditions: for Velvetleaf plant response rating: scale 0 to 100
Source text: as §1, §2

chickweed = assay: Test C postemergence; assay type: in vivo, Stellaria media
Source text: as §1, §2

wheat = assay: Test C preemergence; assay type: in vivo, Triticum aestivum; conditions: preemergence
Summary of the method: (§3)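 Greenhouse pot test: preemergence application onto freshly seeded loam/sand mix, postemergence application onto seedlings (1–4 leaves, 2–18 cm) in peat-vermiculite substrate. Responses scored visually 13 to 15 days later relative to controls, where 0 means no effect and 100 means complete control; a dash indicates no result.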

galium = assay: Test C preemergence; assay type: in vivo, Galium aparine; conditions: preemergence
Source text: as §1, §2

johnsongrass [5] = assay: Test C preemergence; assay type: in vivo, Sorghum halepense; conditions: preemergence
Summary of the method: as §3

lambsquarters = assay: Test C preemergence; assay type: in vivo, Chenopodium album; conditions: preemergence
Source text: as §1, §2

soybean = assay: Test C preemergence; assay type: in vivo, Glycine max; conditions: preemergence
Summary of the method: as §3

barnyardgrass = assay: Test C preemergence; assay type: in vivo, Echinochloa crus-galli; conditions: preemergence
Source text: as §1, §2

oilseed rape = assay: Test C preemergence; assay type: in vivo, Brassica napus; conditions: preemergence
Source text: as §1, §2

velvetleaf [6] = assay: Test C preemergence; assay type: in vivo, Abutilon theophrasti; conditions: preemergence
Summary of the method: as §3

[7] = Postemergence, 500 g ai/ha, 0 to 100 scale (0 no effect, 100 complete control)
[8] = postemergence, 125 g ai/ha, about 10 days, visual rating on 0 to 100 scale (0 no effect, 100 complete control)
[9] = Postemergence, 31 g ai/ha, visually evaluated after 13 to 15 days
[10] = postemergence, 62 g ai/ha, scale 0 to 100
[11] = postemergence, 250 g ai/ha, scale 0 to 100 (0 no effect, 100 complete control)
[12] = postemergence, 125 g ai/ha, scale 0 to 100, 0 no effect, 100 complete control
[13] = 31 g ai/ha, visual rating, scale 0 to 100 (0 no effect, 100 complete control), 13 to 15 days
[14] = 62 g ai/ha, scale 0 to 100 (0 no effect, 100 complete control), 13 to 15 days
[15] = 125 g ai/ha, 13 to 15 days, scale 0 to 100, 0 = no effect, 100 = complete control
[16] = 250 g ai/ha, scale 0 to 100, 0 is no effect, 100 is complete control

With `CCCc1cc(C(=O)NCC(F)(F)F)nn1Cc1cc(C(F)(F)F)nn1C` [Compound 138] the “Crabgrass, Large plant response rating” value (crabgrass, large [1]; [7]) was 100, the “Crabgrass, Large plant response rating” value (crabgrass, large [1]; [8]) was 100 and the “Plant response rating (scale of 0 to 100 where 0 is no effect and 100 is complete control), Blackgrass” value (blackgrass; [9]) was 5. For the same compound, the “Blackgrass plant response rating” value (blackgrass; [10]) was 10, the “Plant response rating, Blackgrass” value (blackgrass; [11]) was 50 and the “Plant response rating, Blackgrass” value (blackgrass; [12]) was 20. The “Plant response rating (scale of 0 to 100 where 0 is no effect and 100 is complete control), Crabgrass, Large” value (crabgrass, large [2]; [9]) was 5, the “Crabgrass, Large plant response rating” value (crabgrass, large [2]; [10]) was 5 and the “Plant response rating, Crabgrass, Large” value (crabgrass, large [2]; [11]) was 70. The “Plant response rating, Crabgrass, Large” value (crabgrass, large [2]; [12]) was 30, the “Plant response rating (scale of 0 to 100 where 0 is no effect and 100 is complete control), Johnsongrass” value (johnsongrass [3]; [9]) was 10 and the “Johnsongrass plant response rating” value (johnsongrass [3]; [10]) was 10. For the same compound, the “Plant response rating, Johnsongrass” value (johnsongrass [3]; [11]) was 20, the “Plant response rating, Johnsongrass” value (johnsongrass [3]; [12]) was 10 and the “Plant response rating (scale of 0 to 100 where 0 is no effect and 100 is complete control), Morningglory” value (morningglory; [9]) was 60. The “Morningglory plant response rating” value (morningglory; [10]) was 85, the “Plant response rating, Morningglory” value (morningglory; [11]) was 95 and the “Plant response rating, Morningglory” value (morningglory; [12]) was 85. For the same compound, the “Plant response rating (scale of 0 to 100 where 0 is no effect and 100 is complete control), Velvetleaf” value (velvetleaf [4]; [9]) was 30, the “Velvetleaf plant response rating” value (velvetleaf [4]; postemergence, 62 g ai/ha) was 40 and the “Plant response rating, Velvetleaf” value (velvetleaf [4]; [11]) was 50. For the same compound, the “Velvetleaf plant response rating” value (velvetleaf [4]; postemergence) was 25, the “Plant response rating (scale of 0 to 100 where 0 is no effect and 100 is complete control), Chickweed” value (chickweed; [9]) was 70 and the “Chickweed plant response rating” value (chickweed; [10]) was 80. The “Plant response rating, Chickweed” value (chickweed; [11]) was 90 and the “Plant response rating, Chickweed” value (chickweed; [12]) was 80.

In the case of `CCNC(=O)c1cc(CCCl)n(Cc2ccnc(C(F)(F)F)c2)n1` [Compound 179], the “Crabgrass, Large plant response rating” value (crabgrass, large [1]; [7]) is reported as 90, the “Crabgrass, Large plant response rating” value (crabgrass, large [1]; [8]) is reported as 90 and the “Wheat plant response rating” value (wheat; [13]) is reported as 0. For the same compound, the “Wheat plant response rating” value (wheat; [14]) was 0, the “Plant response rating, Wheat” value (wheat; [15]) was 80 and the “Wheat plant response rating” value (wheat; [16]) was 85. For the same compound, the “Galium plant response rating” value (galium; [13]) was 98, the “Galium plant response rating” value (galium; [14]) was 100 and the “Plant response rating, Galium” value (galium; [15]) was 100. For the same compound, the “Galium plant response rating” value (galium; [16]) was 100, the “Johnsongrass plant response rating” value (johnsongrass [5]; [13]) was 10 and the “Johnsongrass plant response rating” value (johnsongrass [5]; [14]) was 10. For the same compound, the “Plant response rating, Johnsongrass” value (johnsongrass [5]; [15]) was 75, the “Johnsongrass plant response rating” value (johnsongrass [5]; [16]) was 98 and the “Lambsquarters plant response rating” value (lambsquarters; [13]) was 90. The “Lambsquarters plant response rating” value (lambsquarters; [14]) was 100, the “Plant response rating, Lambsquarters” value (lambsquarters; [15]) was 100 and the “Lambsquarters plant response rating” value (lambsquarters; [16]) was 100. The “Soybean plant response rating” value (soybean; [13]) was 35, the “Soybean plant response rating” value (soybean; [14]) was 65 and the “Plant response rating, Soybean” value (soybean; [15]) was 85. For the same compound, the “Soybean plant response rating” value (soybean; [16]) was 98, the “Barnyardgrass plant response rating” value (barnyardgrass; [13]) was 60 and the “Barnyardgrass plant response rating” value (barnyardgrass; [14]) was 98. For the same compound, the “Plant response rating, Barnyardgrass” value (barnyardgrass; [15]) was 100, the “Barnyardgrass plant response rating” value (barnyardgrass; [16]) was 100 and the “Oilseed Rape plant response rating” value (oilseed rape; [13]) was 60. For the same compound, the “Oilseed Rape plant response rating” value (oilseed rape; [14]) was 85, the “Plant response rating, Oilseed Rape” value (oilseed rape; [15]) was 100 and the “Oilseed Rape plant response rating” value (oilseed rape; [16]) was 100. For the same compound, the “Velvetleaf plant response rating” value (velvetleaf [6]; [13]) was 35, the “Velvetleaf plant response rating” value (velvetleaf [6]; [14]) was 80 and the “Plant response rating, Velvetleaf” value (velvetleaf [6]; [15]) was 100. For the same compound, the “Velvetleaf plant response rating” value (velvetleaf [6]; [16]) was 100.
